{"source": "patent US6338963B1", "about": "“Use of carbon monoxide dependent guanylyl cyclase modifiers to stimulate neuritogenesis” (NeoTherapeutics, Inc., priority 1994, dated 2002)", "key": {"NGF": {"system": "NGF", "test": "Summary of effects on growth factor mRNA and protein (Table R): NGF", "set-up": "key: ± = mRNA; + = protein; nt = not tested", "conditions": "Aged Brain", "from_the_text": "(§1) The constellation of effects of AIT-082 on production of mRNA encoding growth factors and on production of growth factor proteins is shown in Table R. The results summarized in […] show both transcriptional and translational effects on growth factors that are in the categories of neurotrophins, pleiotrophins, members of the S100 family of EF hand calcium binding proteins, and members of the TGFβ superfamily. As indicated, effects have been shown at both the mRNA (transcriptional) and protein (translational) levels."}, "S100β": {"system": "S100β", "test": "Summary of effects on growth factor mRNA and protein (Table R): S100β", "set-up": "key: ± = mRNA; + = protein; nt = not tested", "conditions": "Cultured Cells", "from_the_text": "as §1"}, "C57BL/6 mice": {"system": "C57BL/6 mice", "test": "Win-shift test, C57BL/6 mice with age-induced memory deficits", "assay_type": "in vivo", "conditions": "for subjects performing significantly above chance/total number of subjects: AIT-082 30 mg/kg", "description": "Twelve-month old male C57BL/6 mice were screened for performance in the win-shift foraging test. Subjects were tested at various inter-trial time intervals. Subjects who could not perform to criteria (>60% correct) at 10 seconds delay were classified as having a severe deficit. Subjects who performed to criteria at 10 seconds but not at 30 seconds were classified as having a moderate degree of deficit and subjects who performed to criteria at 30 seconds but not at 60 seconds were classified as having mild deficit. As in Example 21, subjects in each group were treated with either AIT-082 or PHY to determine the extent to which the working memory trace was prolonged. The results are presented in Table M directly below and graphically represented in FIG. 10."}, "[1]": {"test": "Plasma levels of AIT-082 in mice (HPLC)", "assay_type": "in vivo", "conditions": "30 mg/kg i.p., C57BL/6 mice, estimated", "description": "Adult C57BL/6 mice were administered 30 mg/kg of AIT-082 in saline i.p. The animals were sacrificed by decapitation at […] after administration of AIT-082. Blood was collected in heparinized tubes, mixed and centrifuged at 2000 rpm for 15 minutes. The plasma supernatant was removed and stored at −70° C. until analysis. A high pressure liquid chromatography system was developed for the analytical measurement of AIT-082 in plasma and brain tissue. The assay developed was selective for AIT-082 in the presence of a number of closely related purine molecules. The sensitivity of the method was 0.1 microgram of AIT-082 per ml of plasma and 0.1 microgram of AIT-082 per milligram of brain tissue (wet weight).\nThe results of these determinations graphically represented in FIG. 1 where plasma levels of AIT-082 are provided at 5, 10, 15, 20, 30, 60, 90, and 120 minutes after administration of 30 mg/kg i.p. to C57BL/6 mice. From the data, it was estimated that the blood level of AIT-082 reached its peak at approximately 15 minutes."}, "[2]": {"system": "cultured rat hippocampal neurons", "test": "NMDA-induced toxicity in cultured rat hippocampal neurons, astrocyte conditioned medium", "description": "To determine whether or not AIT-082 afforded in vitro neuroprotection, the effect of AIT-082 on toxicity induced by N-methyl-D-aspartate (NMDA) in cultured rat hippocampal neurons was studied.\nTo determine whether AIT-082 protected against neuronal toxicity induced by NMDA, and whether astrocytes might be involved, cultured astrocytes were exposed to AIT-082 for 6 hr. The drug was then removed and cultures were kept in fresh medium for the following 20 hr. This conditioned medium was then added to primary cultures of rat hippocampal neurons on the seventh day in vitro, immediately after they had been exposed to a toxic pulse of NMDA.\nIt was next evaluated whether the addition of conditioned medium (CM) deriving from astrocyte cultures treated with 100 μM AIT-082 generated protection against damage induced by a toxic pulse with 100 μM NMDA in cultured neurons.\nThe effects of NMDA are shown in FIG. 66A on cortical cells and in FIG. 66B for hippocampal cells."}}, "note": "Marks after values point to notes of the source that are not given here.", "data": [{"smiles": "O=C(CCn1cnc2c(=O)[nH]cnc21)Nc1ccc(C(=O)O)cc1", "note": "[AIT-082, N-4-carboxyphenyl-3-(6-oxohydropurin-9-yl)propanamide]", "values": [{"measurement": "NGF, effect on mRNA/protein production", "setting": "NGF", "value": "±"}, {"measurement": "S100β, effect on mRNA/protein production", "setting": "S100β", "value": "+"}, {"measurement": "subjects performing significantly above chance/total number of subjects", "setting": "C57BL/6 mice; Mild deficit, interval 60 sec", "value": "4/4*"}, {"measurement": "subjects performing significantly above chance/total number of subjects", "setting": "C57BL/6 mice; Mild deficit, interval 90 sec", "value": "2/4*"}, {"measurement": "subjects performing significantly above chance/total number of subjects", "setting": "C57BL/6 mice; Moderate deficit, interval 10 sec", "value": "6/6*"}, {"measurement": "subjects performing significantly above chance/total number of subjects", "setting": "C57BL/6 mice; Moderate deficit, interval 30 sec", "value": "4/6"}, {"measurement": "subjects performing significantly above chance/total number of subjects", "setting": "C57BL/6 mice; Moderate deficit, interval 60 sec", "value": "1/6"}, {"measurement": "subjects performing significantly above chance/total number of subjects", "setting": "C57BL/6 mice; Moderate deficit, interval 90 sec", "value": "0/6"}, {"measurement": "subjects performing significantly above chance/total number of subjects", "setting": "C57BL/6 mice; Severe deficit, interval <10 sec", "value": "0/6"}, {"measurement": "duration of the memory trace after treatment", "setting": "C57BL/6 mice; mild deficit group, prolonged from 30", "value": 90, "unit": "s"}, {"measurement": "duration of the memory trace after treatment", "setting": "C57BL/6 mice; moderate deficit group, prolonged from 10", "value": 30, "unit": "s"}, {"measurement": "time at which blood level of AIT-082 reached its peak", "setting": "[1]", "value": "approximately 15 minutes"}, {"measurement": "reduction of cell damage", "setting": "[2]; combination of 100 μM AIT-082 and CM, hippocampal cells, 100 μM NMDA", "value": "70-80%"}, {"measurement": "reduction of the number of dead neurons and the production of LDH caused by NMDA", "setting": "[2]; conditioned medium from astrocytes treated with AIT-082 (50-100 μM) for 6 hr", "value": 50, "unit": "%"}]}]}
